Measurements published in patent publication US20200121620A1, “SENOLYTIC COMPOUNDS” (UNITED KINGDOM RESEARCH AND INNOVATION, priority 2017, published 2020).

What was measured:
IMR90 ER:RAS cells = experiment: Senolytic activity in IMR90 ER:RAS cells undergoing oncogene-induced senescence (4OHT) vs DMSO-treated non-senescent cells; details: 4OHT vs DMSO; FIG. 11
Description: FIG. 1: (A) IMR90 ER:RAS cells were induced to undergo senescence by treating them with 100 nM 4OHT for 6 days. At that point, 10 μM of the indicated drugs was added. In parallel, the same treatments were carried out in IMR90 ER:RAS cells treated with DMSO (−4OHT). […] Cells were fixed at day 6, 8 and 10 after 4OHT induction and stained with crystal violet to assess cell viability. T, Tyr-AG879; P, PF-573228; C, Cyclosporine. (B) A similar experiment to (A) was conducted and cells at day 10 post-induction were fixed and stained with DAPI to assess cell numbers
In the setup used, IMR90 ER:RAS cells were treated with 100 nM 4OHT to induce OIS (oncogene induced senescence) and activate the ER:RAS fusion protein. 6 days after 4OHT induction (+4OHT), once cells were fully senescent, the agents to be tested were added at a concentration of 10 μM, and cell numbers were assessed 4 days after by DAPI stained couple to automated microscopy. Alternatively, cells were fixed and stained with crystal violet. In parallel, the same treatments were carried out in IMR90 ER:RAS cells treated with DMSO (−4OHT).
IMR90 ER:RAS cells were induced to undergo senescence by treating them with 100 nM 4OHT for 6 days. At that point, 10 μM of the indicated drugs was added. In parallel, the same treatments were carried out in IMR90 ER:RAS cells treated with DMSO (−4OHT). […] Cells were fixed at day 6, 8 and 10 after 4OHT induction and stained with crystal violet to assess cell viability. A similar experiment was conducted and cells at day 10 post-induction were fixed and stained with DAPI to assess cell numbers (see FIG. 1).

[1] = system: senescent human fibroblasts; details: Lui et al, Sci Rep 2015; cited from earlier work
[2] = system: senescent cells in the lung; experiment: Elimination of senescent cells induced by whole body irradiation in mice; assay type: in vivo; details: 6 Gray whole body irradiation; 2 months later treated for 4 consecutive days; FIG. 16
Description: (A) Experimental set up, mice (n=5 per group) were irradiated with 6 Gray to induce senescence. […] (B) Cryosections of lungs obtained from control and irradiated mice were stained with hematoxilin and eosin (to reveal tissue architecture), and SA-β-Gal (to reveal senescent cells). Senescent cells accumulate in the bronchioles of irradiated mice. (C) Quantification of the lung area positive for SA-β-Gal staining. […] (D). Representative pictures of lung cryosections.
Whole-body irradiation is known to cause senescence. In irradiated mice, senescent cells accumulate in different tissues, including the lung (Chang et al., 2016; Yosef et al., 2016).

IMR90 ER:RAS E6/E7 cells = experiment: Killing of IMR90 ER:RAS E6/E7 cells (RAS signalling without senescence); assay type: cell-based, human; details: 1, 5 and 10 μM; 4OHT vs DMSO; FIG. 5
Description: In these experiments the compounds were tested side by side with a control ABT-263 (the de facto gold standard senolytic compound) (Chang et al., 2016; Yosef et al., 2016; Zhu et al., 2016). Experiments were conducted to test the ability of the compounds to behave as senolytics during OIS (using IMR90 ER:RAS, FIG. 3 and HMEC hTERT ER:RAS, FIG. 4). […] To understand whether the selective killing of senescent IMR90 ER:RAS was a consequence of senescence induction or of activation of RAS signaling, experiments were conducted in isogenic IMR90 ER:RAS E6/E7 cells. In these cells, RAS signalling is induced by adding 100 nM 4OHT that activates the ER:RAS fusion protein. However, expression of the E6/E7 protein prevents senescence induction.

Structure (SMILES) | senolytic effect of statins, preferential killing of cells undergoing OIS (IMR90 ER:RAS cells) | senescence-associated secretory phenotype (SASP) [1] | lung area positive for SA-β-Gal staining (senescent cells) [2] | selectivity for killing IMR90 ER:RAS E6/E7 (IMR90 ER:RAS E6/E7 cells)
CCC(C)(C)C(=O)O[C@H]1C[C@@H](C)C=C2C=C[C@H](C)[C@H](CC[C@@H]3C[C@@H](O)CC(=O)O3)[C@H]21 [Simvastatin] | behaves as a senolytic in a concentration dependent manner | decrease the senescence-associated secretory phenotype (SASP) |  | 
c1ccc2c(c1)[IH]c1ccccc1-2 [Diphenyleneiodonium chloride] |  |  | partially eliminated | displayed selectivity for killing IMR90 ER:RAS E6/E7
